# Experimental data taken from patent publication US20210169903A1, “PHARMACEUTICAL COMPOSITIONS AND METHODS” (Tyme, Inc., priority 2019, published 2021).
# System: established subcutaneous CT26 murine colon carcinoma
# Assay: Anti-tumor activity of components of the transdermal formulation, intratumoral, tumor volume (Example 3)
# Type: in vivo, female Balb/c mice
# Set-up: TES Group Median / DT Group Median / TGD: unit not given here
# Conditions: 50 μL intratumorally daily Day 11-17; for TGD: tumor growth delay versus Vehicle (0.0)
# Experimental: A study is conducted to evaluate the anti-tumor activity of the components of the transdermal formulation intratumorally against established subcutaneous CT26 murine colon carcinoma in female Balb/c mice.
# Vehicle control is saline solution. 3-surfactant mixture is a mixture of Nonaethylene glycol monododecyl ether, 1-Methyl-2-pyrrolidinone, and Linoleic Acid.
# Tumor cells are implanted subcutaneously (Day 0). Once enrollment criteria are achieved, animals are distributed into treatment groups such that the mean tumor burden in each group is within 10% of the overall mean. Mice are dosed individually by body weight (50 μL fixed/injection intratumorally) on the day of treatment as described above. Animals are dose daily for 7 days beginning on Day 11 and ending on Day 17. Animals are held for tumor growth delay endpoint/tumor growth inhibition endpoint and complete regression/partial regression/tumor free survivor determination.
# [1] = 2nd time-point column (day not given)
# [2] = 4th time-point column (day not given)
# [3] = 5th time-point column (day not given)
# [4] = 6th time-point column (day not given)
# [5] = 7th time-point column (day not given)
SMILES,Mean Tumor Volume [1] [mm^3],Median Tumor Volume [1] [mm^3],Mean Tumor Volume (3rd time-point (day not given)) [mm^3],Median Tumor Volume (3rd time-point (day not given)) [mm^3],Mean Tumor Volume [2] [mm^3],Median Tumor Volume [2] [mm^3],Mean Tumor Volume [3] [mm^3],Median Tumor Volume [3] [mm^3],Mean Tumor Volume [4] [mm^3],Median Tumor Volume [4] [mm^3],Mean Tumor Volume [5] [mm^3],Median Tumor Volume [5] [mm^3],DT Group Median,TES Group Median,Mean Tumor Volume (day not given) [mm^3],Median Tumor Volume (day not given) [mm^3],TGD
"CN1CCCC1=O [1-Methyl-2-pyrrolidinone anhydrous, 1-Methyl-2-pyrrolidinone]",278,295,428,426,688,624,1008,918,1216,1183,1910,1812,4.0,18.8,134,141,0.8
CCCCC/C=C\C/C=C\CCCCCCCC(=O)O [Linoleic Acid],283,270,481,411,777,700,1291,1030,1118,1152,2035,2250,3.5,18.7,132,138,0.6
CCCCCCCCCCCCOCCOCCOCCOCCOCCOCCOCCOCCOCCO [Nonaethylene glycol monododecyl ether],236,246,416,368,761,819,996,988,1364,1311,2017,2009,3.7,17.7,126,125,−0.4
